Measured values as given in US7713960B2, “Inhibition of the Raf/Mek/P-Erk pathway for treating cancer” (University of South Florida, priority 2005, dated 2010).
Structures can show the parent of a compound that is named as a salt.

Assays:
[1] = test system: SF-539 cells; assay: Anchorage-dependent growth (MTT assay), SF-539; assay type: cell-based, human
Description: (§1) MTT Assay—2000 cells per well were plated into 96 well tissue culture plates, and the cells were allowed to attach overnight at 37° C. with 10% CO2. Cells were then treated with increasing concentrations of ARA-211, or vehicle (DMSO) and incubated for four days. At that time treatment medium was removed and replaced with 100 μl of lmg/ml MTT (Sigma-Aldrich, St. Louis, Mo.) in media and incubated at 37° C., 10% CO2 for 3 hours. After 3 hours the MTT media was removed and replaced with 100 μl/well of DMSO, rocked at room temperature for 5 minutes, then absorbance read at 540 nm on a micro-plate reader.

[2] = test system: HCT-116 cells; assay: Anchorage-dependent growth (MTT assay), HCT-116; assay type: cell-based, human
Description: as §1

[3] = test system: P-Erk 1/2; assay: P-Erk 1/2 levels, MCF-7; assay type: cell-based, human; conditions: MCF-7 (breast)
Description: (§2) Western Blotting—Treated cell samples were lysed in 30 mM HEPES, 10 mM NaCl, 5 mM MgCl2, 25 mM NaF, 1 mM EGTA, 1% Triton-X-100, 10% Glycerol, 2 mM Sodium orthovanidate, 10 μg/mL aprotinin, 10 μg/mL soybean trypsin inhibitor, 25 μg/mL leupeptin, 2 mM phenylmethylsulfonylfluoride (PMSF), 6.4 mg/mL p-nitrophenylphosphate for 30 minutes at 4° C., and proteins run on SDS-PAGE gels then transferred to nitrocellulose membranes. Membranes were blocked in either 5% milk in PBS, pH 7.4, containing 0.1% Tween-20 (PBS-T) or 1% BSA in TBS, pH 7.5, containing 0.1% Tween-20 (TBS-T). Phospho-STAT3 and phospho-AKT antibodies were diluted in 1% BSA in TBS-T while phospho-c-Raf, phospho-Mek, and phospho-p44/p42 MAPK antibodies (Cell Signaling) were diluted in 5% milk in PBS-T for either 1 hour at room temperature or overnight at 4° C. HRP-conjugated secondary antibodies (Jackson ImmunoResearch, West Grove, Pa.) were diluted in 5% milk in PBS-T or TBS-T at a 1:1000 dilution for one hour at room temperature. Western blots results were visualized using enhanced chemiluminescence. Stripping of the membranes for reblotting was done using stripping buffer (62.5 mM Tris pH 7.6, 2% SDS, 0.7% 2-mercaptoethanol) at 50° C. for 30 minutes.

[4] = test system: P-Erk 1/2; assay: P-Erk 1/2 levels (Western blotting), A-549; assay type: cell-based, human
Description: as §2

[5] = test system: SF-539 cells; assay: Total cellular cAMP measurement, SF-539; assay type: cell-based, human
Description: Total cellular cAMP measurement—The measurement of total cellular cAMP was done using a cAMP Biotrak ™ Enzymeimmunoassay (EIA) system (Amersham Biosciences, Piscataway, N.J.) according to the manufacturer's protocol. Briefly, 2000 cells were plated into each well of a 96 well plate. The next day cells were treated with increasing concentrations of ARA-211 or with vehicle for one hour. Alternatively, MDA-MB-231 cells were pre-treated with antagonists to the α1 (Prazosin, Sigma), α2 (Yohimbine, Sigma), β1 (Metoprolol, Sigma), and β2 (ICI 118.551, Sigma) adrenergic receptors at 100 nM for 15 minutes followed by treatment with 10 μM ARA-211 for 45 minutes. Cells were then lysed directly in the wells using the supplied lysis buffer. The lysate was transferred to a 96-well cAMP ELISA plate, and results were quantified using a Wallac Victor 2 plate reader.

[6] = test system: P-Erk 1/2; assay: P-Erk 1/2 levels (Western blotting), SF-539; assay type: cell-based, human
Description: as §2

[7] = test system: A-549 cells; assay: Nude mouse xenograft model, A-549 (s.c.); assay type: in vivo, nude mice; conditions: A-549 xenograft; i.p. 75 mpk/day
Description: (§3) Anti-tumor activity in nude mouse xenograft model—Female athymic nude (nu/nu) mice, 5-6 weeks old, were purchased from Charles River (Wilmington, Mass.) and allowed to acclimate in the animal facility for one week. After harvesting, A-549, SNB-19, ACHN, and HCT-116 cells were, resuspended in sterile PBS, and injected s.c. into the right and left flanks (10×10^6 cells per flank) of the mice as previously described (Sun et al., 2005). For MDA-MB-231, cells were harvested and resuspended in PBS (10×10^6 cells per 50 μl) and an equal volume of Matrigel (BD Biosciences, San Jose, Calif.). 100 μl of MDA-MB-231 cells in PBS/Matrigel were injected s.c. into the mammary fat pads between the 2nd and 3rd nipples on each side of the mice. Once the tumors reached approximately 200-300 mm^3 the mice were randomized and treated i.p. with 0.1 ml vehicle (PBS) or ARA-211. Each treatment group consisted of five mice (2 tumors per mouse, a total of 10 tumors). The tumor volumes were determined by measuring the length (l) and width (w) and calculating the volume (V=w^2l/2). Statistical significance between the control and treated animals was determined using a student's t test.

[8] = test system: P-Erk 1/2; assay: P-Erk 1/2 levels (Western blotting), SNB-19; assay type: cell-based, human
Description: as §2

[9] = test system: HCT-116 cells; assay: Nude mouse xenograft model, HCT-116 (s.c.); assay type: in vivo, nude mice; conditions: HCT-116 xenograft; i.p. 75 mpk/day
Description: as §3

[10] = test system: P-Erk 1/2; assay: P-Erk 1/2 levels (Western blotting), HCT-116; assay type: cell-based, human
Description: as §2

[11] = test system: P-Mek-1; assay: P-Mek-1 levels (Western blotting), MDA-MB-231; assay type: cell-based, human
Description: as §2

[12] = test system: Rap-1; assay: Rap-1 activation assay, ACHN cells; assay type: cell-based, human
Description: The effect of B2AR stimulation on Rap1 was investigated using the following methods: A Rap-1 activation assay kit (Upstate, Temecula, Calif.) was used according to protocol to determine if stimulation of the B2AR by ARA-211, and subsequent downstream signaling resulting in inhibition of P-Erk 1/2, is mediated by activation of Rap-1 directly by the Rap-1 guanine nucleotide exchange factor Epac. […] Cells were incubated with drugs for 1 hour unless noted otherwise. Cells were then lysed, the positive control lysate was incubated with 10 mM EDTA and 100 μM GTPγS and incubated for 30 minutes to load GTP onto Rap-1. Lysates from all samples were then incubated with 25 μg GST-RalGDS-Rap-1 binding domain beads for 45 minutes, washed with assay buffer 3×, resuspended in 40 μl of 2×Laemmli sample buffer and boiled for 5 minutes. Samples were resolved by SDS-PAGE electrophoresis, transferred to nitrocellulose, blotted overnight with 1 μ/ml polyclonal anti-Rap-1, and visualized by chemiluminescence.

Compound: CC(C)(C)NCC(O)c1ccc(O)c(CO)n1 (stereo not shown) [ARA-211, 2-hydroxymethyl-3-hydroxy-6-(1-hydroxy-2-tert-butylaminoethyl) pyridine, dihydrochloride]
- Anchorage Dependent Growth (% Inhibition) [1]: 55 ± 6.9%
- Anchorage Dependent Growth (% Inhibition) [2]: 6.5 ± 4%
- inhibition of P-Erk 1/2 levels [3]: did not
- P-Erk ½ (% Inhibition) [4]: 0%
- cAMP (Fold Induction) [5]: 13.1 ± 3.0 Fold
- P-Erk ½ (% Inhibition) [6]: 100%
- growth of tumors [7]: is not affected
- P-Erk ½ (% Inhibition) [8]: 0%
- growth of tumors [9]: is not affected
- P-Erk ½ (% Inhibition) [10]: 0%
- P-Mek-1 levels [11]: suppressed
- Rap-1 activation (GTP-loaded Rap-1) ([12]; 10 μM, 1 hour): activated Rap-1
- Rap-1 activation after blocking PKA kinase activity ([12]; pre-treatment with 10 μM H89 (1 hr) followed by ARA-211): had no effect on the ability of ARA-211 to stimulate Rap-1 activation
